The values below come from article PMC9936582, “Sulfamate Acetamides as Self-Immolative Electrophiles for Covalent Ligand-Directed Release Chemistry” (Journal of the American Chemical Society, 2023).

Series [1] relates to IgM+/CD5+ cells. Description: TCL1 adoptive transfer mouse model for CLL. The settings on record: after 2 weeks of treatment, vs untreated mice. The series is classed as in vivo. On the procedure:
(§1) We tested compound 3c in the TCL1 adoptive transfer mouse model for CLL.[42] In this experiment, immune-competent healthy mice received an adoptive transfer of 4 × 10^7 TCL1 splenocytes obtained from full leukemic TCL1 transgenic mice by intravenous injection (Figure 4D). IgM+/CD5+ cells were monitored weekly, and treatment (or mock treatment) was started 4 weeks after transplantation when CD5+ were > 30% in the blood. The mice received a solution containing sulfamate 3c (0.16 mg/mL in 1% cyclodextrin water) ad libitum in the drinking water. […] Moreover, spleens were isolated from the mice after 2 weeks of treatment and quantified.
TCL1 mice for this model were generated as previously described.[42] For this experiment, TCL1 mice approximately 12 months of age with a malignant cell population higher than 60% in the PB were sacrificed. Their spleens were excised, and 4 × 10^7 cells resuspended in PBS^–/– were injected into the tail vein of 6 week old recipient mice. Progression of the disease was followed in the PB by using flow cytometry for the +IgM/+CD5 population. Mice with >30% IgM+/CD5+ cells were considered to be diseased and were used for further analysis.
Isolated cells were stained using specific antibodies (IgM-PE, CD5-APC, BioLegend) in staining buffer (0.5% bovine serum albumin in phosphate-buffered saline) for 30 min in 4 °C in dark then washed twice. […]

In series [2] the target is T1, BTK (Mus musculus, UniProt P35991).
T1 construct: the dissected spleens were extracted with RIPA buffer and incubated with an ibrutinib alkyne analogue; from tissue; host or cells: spleen of mice with adoptively transferred TCL1 leukemic splenocytes
T1 sequence (P35991 whole entry): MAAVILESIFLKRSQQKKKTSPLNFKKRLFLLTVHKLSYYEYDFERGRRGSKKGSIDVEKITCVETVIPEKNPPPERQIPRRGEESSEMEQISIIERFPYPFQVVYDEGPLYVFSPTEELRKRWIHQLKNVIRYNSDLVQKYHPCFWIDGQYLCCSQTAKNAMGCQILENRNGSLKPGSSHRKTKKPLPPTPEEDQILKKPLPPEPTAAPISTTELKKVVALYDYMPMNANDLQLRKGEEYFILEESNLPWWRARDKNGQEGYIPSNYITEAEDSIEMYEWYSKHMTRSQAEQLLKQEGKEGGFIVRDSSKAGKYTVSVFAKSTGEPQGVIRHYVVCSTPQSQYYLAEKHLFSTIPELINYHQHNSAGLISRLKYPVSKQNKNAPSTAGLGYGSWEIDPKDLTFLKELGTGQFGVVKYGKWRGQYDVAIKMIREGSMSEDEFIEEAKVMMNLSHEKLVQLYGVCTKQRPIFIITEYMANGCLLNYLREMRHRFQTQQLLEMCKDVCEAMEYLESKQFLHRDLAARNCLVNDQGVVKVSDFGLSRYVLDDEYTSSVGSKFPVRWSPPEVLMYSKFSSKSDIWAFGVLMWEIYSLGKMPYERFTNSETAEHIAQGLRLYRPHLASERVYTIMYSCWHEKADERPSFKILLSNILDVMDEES
The series is described as follows: BTK engagement in treated mice spleens. In kind it is in vivo. The settings on record: spleen lysates, ibrutinib alkyne analogue, TAMRA-azide. How it is done:
as §1
Pellets of harvested spleens were lysed using RIPA buffer (Sigma, R0278) and clarified at 21,000g for 15 min at 4 °C, and protein concentration was determined using BCA protein assay (Thermo Scientific, 23225). Lysates were diluted to 2 mg/mL, 50 μL per sample, and incubated for 1 h in room temperature with 1 μM probe 4 to label BTK. Lysates were then clicked to TAMRA-azide and imaged using ChemiDoc MP (546 nm) as described in the in-gel fluorescence protocol.

The test system of series [3] is Mino cells. Description: isoDTB ABPP in Mino cells. In kind it is cell-based, human. The note with it: for isoDTB-ABPP H/L Ratio: mino cells, 1 µM compound, 2h.
Method: This was followed by a reaction with biotin-azide using CuAAC, enrichment of the labeled proteins, and their quantification by tryptic digestion and LC/MS/MS analysis.
The preparation of IsoDTB-ABPP samples was performed essentially as described in Zanon et al.2.
Experiments were conducted in quadruplicates. […] For lysis, samples containing 10 million cells were dispersed in 0.5 mL of RIPA buffer (Sigma, R0278),
sample was diluted to 1.7 mg/mL using PBS. To each sample, 5 µL of 10 mM IA-alkyne was added, followed by 1 h incubation at room temperature in the dark. 10 µL of 5 mM DesThioTag was added (Light for the compound treated samples, heavy for the DMSO-treated samples), followed by 18 µL of CuSO4:THPTA (100 mM), and the click reaction was initiated by addition of 15 µL of 150 mM sodium ascorbate (freshly dissolved in water). The samples were incubated on a rotary shaker for 1 h at room temperature.
mL water on ice, vortexed and centriduged at 3200 g for 10 min at 4°C. The top layer was aspirated, and 3 mL methanol was added, followed by centrifugation and aspiration of the supernatant. The pellets were air dried and stored at -80°C until the following treatment. The pellets were resuspended in 0.3 mL of 8 M urea freshly dissolved in PBS using probe sonication (8 sec total at 40% amplitude, 1 sec on/2 sec off, at room temperature). Following the resuspension, the samples were diluted with 1 mL of PBS. Then each sample was mixed with 1.3 mL of slurry containing 110 µL of streptavidin agarose beads (Thermo
The samples were incubated with rotation for 3 h at room temperature. The beads were pelleted by centrifugation at 2000 g for 2 min, transferred to spin columns, and washed 3 times with 0.1% IGEPAL/PBS, 3 times PBS, and 3 times water.
The beads were then suspended in 8 M Urea/50 mM ammonium bicarbonate, and 15 µL of 31 mg/mL DTT […]
Series [4] is described as follows: Metabolic stability in human liver microsomes. The settings on record: 5 min incubation. A general note: Microsomes from liver hold many membrane-bound enzymes, among them those of drug oxidation.

Entries after “also recorded” stand apart in the source; their conditions may differ.

Turning to `CNS(=O)(=O)OCC(=O)N1CCC[C@@H](n2nc(-c3ccc(Oc4ccccc4)cc3)c3c(N)ncnc32)C1` [3c], the spleen size result in series [1] is on record as “decreased spleen size; also recorded: visually smaller”. The “BTK engagement in vivo (probe labeling of spleen lysate)” value in series [2] is on record as “do not show probe labeling”. Besides, the “number of off-targets (H/L ratio > 2)” value in series [3] (Mino cells, 1 μM, 2 h) is on record as 10. Also, the “isoDTB-ABPP H/L Ratio” value in series [3] (P27708_C379) worked out at 5.926; in series [3] (P48643_C377), 5.696. For the same compound, the compound remaining intact result in series [4] is recorded as “over 30%”.
